For test [1], the system named is cAMP-linked metabotropic glutamate receptors. As to the kind of experiment: agonism of glutamate at cAMP-linked metabotropic glutamate receptors. The format is cell-based. As to conditions: result in words only.
For test [2], the system named is metabotropic glutamate receptors. In words: displacement of 1S,3R-ACPD-sensitive [3H]glutamate binding to rat brain cell membranes. As to conditions: crude membranes of rat forebrain. As to the method:
The binding of [^3 H]glutamate was conducted with crude membranes of rat forebrain as described by Schoepp and True. Schoepp and True, Neuroscience Lett., 145, 100-104 (1992) and Wright et al., J. Neurochemistry 63:938-945 (1994).

With `NC1(C(=O)O)COC2C(C(=O)O)C21` (single isomer, unassigned) [Example 2(g)], in test [1], the “agonist activity at cAMP-linked metabotropic glutamate receptors” value (“agonist activity” for short) is reported as “potent agonists”.
As usually defined, the IC50 is the concentration that gives 50% inhibition. High values mean weaker potency, low ones greater potency. Regarding `NC1(C(=O)O)COC2C(C(=O)O)C21` (stereo not drawn) [Example 1, 1SR,4SR,5RS,6SR-4-Amino-2-Oxabicyclo[3.1.0]hexane-4,6-dicarboxylic Acid], in test [2], the IC50 was found to be 55 nM. Further, in test [1], the “agonist activity” value was “potent agonists”.
In the case of `NC1(C(=O)O)CSC2C(C(=O)O)C21` (stereo not drawn) [Example 4, 1SR,4RS,5RS,6RS-4-Amino-2-Thiabicyclo[3.1.0]hexane-4,6-dicarboxylic Acid], the “agonist activity” value in test [1] was “potent agonists”.

These data come from patent US5688826A, “Excitatory amino acid derivatives” (Eli Lilly and Company, priority 1996, dated 1997).
